Measured values as given in ChEMBL document CHEMBL1201862, “PubChem BioAssay data set” (2004).
Structures can show the parent of a compound that is named as a salt. Activity calls are given as the source filed them.

Tests used:
[1] = inhibitors of clade B AD8 Env fusion, dose response, cell-based, cherry-pick (AID 652062); type: functional;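 further: luciferase signal from cell-cell fusion driven by HIV-1 clade B AD8 Env; potency is for inhibitors of fusion seen as a drop in luminescence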
[2] = cytotoxicity toward DRD oncogenic fibroblasts, dose response, cell-based, non-viral oncogenic, luminescence (AID 1934); type: functional; settings: Homo sapiens
Paired box protein Pax-8 = Paired box protein Pax-8 (Homo sapiens, UniProt Q06710); experiment: inhibitors of PAX8-driven TPO luciferase reporter, dose response, RMG-I cells, cherry-pick (AID 687027); type: functional, cell-based;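 further: luciferase reporter driven by Pax8 target thyroperoxidase promoter measured by SteadyGlo luminescence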
Chain of Paired box protein Pax-8 (Q06710 whole entry): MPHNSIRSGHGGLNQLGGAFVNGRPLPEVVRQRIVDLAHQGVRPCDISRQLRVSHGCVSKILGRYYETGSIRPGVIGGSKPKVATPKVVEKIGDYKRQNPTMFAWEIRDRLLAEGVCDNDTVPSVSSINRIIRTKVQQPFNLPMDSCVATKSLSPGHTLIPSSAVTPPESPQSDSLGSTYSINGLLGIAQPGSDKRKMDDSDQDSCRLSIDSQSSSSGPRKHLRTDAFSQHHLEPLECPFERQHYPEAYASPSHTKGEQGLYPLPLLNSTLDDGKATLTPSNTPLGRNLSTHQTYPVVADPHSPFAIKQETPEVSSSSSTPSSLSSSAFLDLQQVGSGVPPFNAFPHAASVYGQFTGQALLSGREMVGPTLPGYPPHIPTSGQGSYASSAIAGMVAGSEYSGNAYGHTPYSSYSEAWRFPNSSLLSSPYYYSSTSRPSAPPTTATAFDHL

BJ [3] = experiment: cytotoxicity toward BJ-TERT-LT-ST fibroblasts, dose response, cell-based, RAS-independent, luminescence (AID 1935); type: functional; settings: Homo sapiens;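 further: BJ fibroblasts immortalized with TERT plus LT and ST oncogenes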
BJ [4] = experiment: cells; type: functional, cell-based; settings: Homo sapiens
[5] = C. albicans growth with fluconazole, confirmation, fluorescence, retest (AID 2467); type: functional, cell-based
[6] = NIH:OVCAR-3 ovarian cancer cell cytotoxicity, dose response, PAX8 inhibitor project, plate reader, dry powder samples (AID 743044); type: functional, cell-based
Vero = experiment: cells; type: functional; settings: Chlorocebus sabaeus
[7] = biological target: T1, Corticotropin-releasing factor receptor 2/Corticotropin-releasing factor-binding protein (Homo sapiens, UniProt P24387+Q13324); experiment: activators of CRF receptor 2 with binding protein – uHTS hits, confirmation (AID 602473); type: functional; settings: read-out: EC50_Mean
T1 sequence (Q13324 whole entry): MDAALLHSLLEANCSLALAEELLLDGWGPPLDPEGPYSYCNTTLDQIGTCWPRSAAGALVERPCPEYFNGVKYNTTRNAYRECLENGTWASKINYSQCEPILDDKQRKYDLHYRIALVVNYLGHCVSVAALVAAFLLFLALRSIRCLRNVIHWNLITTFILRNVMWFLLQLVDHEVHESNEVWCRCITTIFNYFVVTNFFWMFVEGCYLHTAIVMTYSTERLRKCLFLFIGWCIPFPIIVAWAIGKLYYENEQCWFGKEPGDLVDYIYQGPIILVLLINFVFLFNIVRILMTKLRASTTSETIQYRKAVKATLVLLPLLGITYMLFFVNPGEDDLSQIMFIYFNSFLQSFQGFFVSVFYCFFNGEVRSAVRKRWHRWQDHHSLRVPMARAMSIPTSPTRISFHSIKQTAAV
T1 sequence (P24387 whole entry): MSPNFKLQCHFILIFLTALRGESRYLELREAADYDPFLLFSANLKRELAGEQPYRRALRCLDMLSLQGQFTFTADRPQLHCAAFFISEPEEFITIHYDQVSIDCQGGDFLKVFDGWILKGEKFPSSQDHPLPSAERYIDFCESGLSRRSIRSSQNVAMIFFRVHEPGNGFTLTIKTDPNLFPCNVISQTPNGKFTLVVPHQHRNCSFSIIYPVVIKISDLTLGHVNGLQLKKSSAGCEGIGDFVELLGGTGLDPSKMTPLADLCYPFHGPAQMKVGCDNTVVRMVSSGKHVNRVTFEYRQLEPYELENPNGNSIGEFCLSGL

[8] = biological target: T1, Corticotropin-releasing factor receptor 2/Corticotropin-releasing factor-binding protein; experiment: Dose Response confirmation of uHTS hits for small molecule antagonists of the CRF-binding protein and CRF-R2 receptor complex.; type: functional; settings: read-out: IC50_Mean
cells [9] = type: functional, cell-based
cells [10] = type: functional, cell-based; remark: listed apart in the source
Protein skinhead-1 = biological target: T2, Protein skinhead-1 (Caenorhabditis elegans, UniProt P34707); type: functional
T2 sequence (P34707 whole entry): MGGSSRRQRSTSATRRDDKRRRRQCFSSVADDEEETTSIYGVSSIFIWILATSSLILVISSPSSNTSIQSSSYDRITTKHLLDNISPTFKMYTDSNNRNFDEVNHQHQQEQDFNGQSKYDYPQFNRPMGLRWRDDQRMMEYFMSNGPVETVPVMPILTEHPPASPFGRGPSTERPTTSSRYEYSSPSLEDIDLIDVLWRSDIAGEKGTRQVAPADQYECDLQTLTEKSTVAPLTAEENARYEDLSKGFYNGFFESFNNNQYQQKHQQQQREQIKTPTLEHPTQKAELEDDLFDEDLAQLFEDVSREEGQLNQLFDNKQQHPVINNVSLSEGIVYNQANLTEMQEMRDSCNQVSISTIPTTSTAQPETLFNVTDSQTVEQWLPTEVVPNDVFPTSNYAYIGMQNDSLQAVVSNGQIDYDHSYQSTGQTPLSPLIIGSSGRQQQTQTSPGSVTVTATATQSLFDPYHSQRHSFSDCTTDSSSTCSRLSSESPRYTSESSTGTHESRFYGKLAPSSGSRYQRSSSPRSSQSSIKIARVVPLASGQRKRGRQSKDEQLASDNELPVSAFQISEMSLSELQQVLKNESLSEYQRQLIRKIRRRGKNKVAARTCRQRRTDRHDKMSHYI

Fatty acid synthase [11] = biological target: T3, Fatty acid synthase (Homo sapiens, UniProt P49327); experiment: FAS thioesterase domain inhibitors, dose response, biochemical, endpoint fluorescence intensity, uHTS hits (AID 624327); type: functional;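 further: fluorescence from hydrolysis of an O-methyl fluorescein acyl ester substrate by the enzyme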
T3 sequence (P49327 whole entry, the tested form may be a part): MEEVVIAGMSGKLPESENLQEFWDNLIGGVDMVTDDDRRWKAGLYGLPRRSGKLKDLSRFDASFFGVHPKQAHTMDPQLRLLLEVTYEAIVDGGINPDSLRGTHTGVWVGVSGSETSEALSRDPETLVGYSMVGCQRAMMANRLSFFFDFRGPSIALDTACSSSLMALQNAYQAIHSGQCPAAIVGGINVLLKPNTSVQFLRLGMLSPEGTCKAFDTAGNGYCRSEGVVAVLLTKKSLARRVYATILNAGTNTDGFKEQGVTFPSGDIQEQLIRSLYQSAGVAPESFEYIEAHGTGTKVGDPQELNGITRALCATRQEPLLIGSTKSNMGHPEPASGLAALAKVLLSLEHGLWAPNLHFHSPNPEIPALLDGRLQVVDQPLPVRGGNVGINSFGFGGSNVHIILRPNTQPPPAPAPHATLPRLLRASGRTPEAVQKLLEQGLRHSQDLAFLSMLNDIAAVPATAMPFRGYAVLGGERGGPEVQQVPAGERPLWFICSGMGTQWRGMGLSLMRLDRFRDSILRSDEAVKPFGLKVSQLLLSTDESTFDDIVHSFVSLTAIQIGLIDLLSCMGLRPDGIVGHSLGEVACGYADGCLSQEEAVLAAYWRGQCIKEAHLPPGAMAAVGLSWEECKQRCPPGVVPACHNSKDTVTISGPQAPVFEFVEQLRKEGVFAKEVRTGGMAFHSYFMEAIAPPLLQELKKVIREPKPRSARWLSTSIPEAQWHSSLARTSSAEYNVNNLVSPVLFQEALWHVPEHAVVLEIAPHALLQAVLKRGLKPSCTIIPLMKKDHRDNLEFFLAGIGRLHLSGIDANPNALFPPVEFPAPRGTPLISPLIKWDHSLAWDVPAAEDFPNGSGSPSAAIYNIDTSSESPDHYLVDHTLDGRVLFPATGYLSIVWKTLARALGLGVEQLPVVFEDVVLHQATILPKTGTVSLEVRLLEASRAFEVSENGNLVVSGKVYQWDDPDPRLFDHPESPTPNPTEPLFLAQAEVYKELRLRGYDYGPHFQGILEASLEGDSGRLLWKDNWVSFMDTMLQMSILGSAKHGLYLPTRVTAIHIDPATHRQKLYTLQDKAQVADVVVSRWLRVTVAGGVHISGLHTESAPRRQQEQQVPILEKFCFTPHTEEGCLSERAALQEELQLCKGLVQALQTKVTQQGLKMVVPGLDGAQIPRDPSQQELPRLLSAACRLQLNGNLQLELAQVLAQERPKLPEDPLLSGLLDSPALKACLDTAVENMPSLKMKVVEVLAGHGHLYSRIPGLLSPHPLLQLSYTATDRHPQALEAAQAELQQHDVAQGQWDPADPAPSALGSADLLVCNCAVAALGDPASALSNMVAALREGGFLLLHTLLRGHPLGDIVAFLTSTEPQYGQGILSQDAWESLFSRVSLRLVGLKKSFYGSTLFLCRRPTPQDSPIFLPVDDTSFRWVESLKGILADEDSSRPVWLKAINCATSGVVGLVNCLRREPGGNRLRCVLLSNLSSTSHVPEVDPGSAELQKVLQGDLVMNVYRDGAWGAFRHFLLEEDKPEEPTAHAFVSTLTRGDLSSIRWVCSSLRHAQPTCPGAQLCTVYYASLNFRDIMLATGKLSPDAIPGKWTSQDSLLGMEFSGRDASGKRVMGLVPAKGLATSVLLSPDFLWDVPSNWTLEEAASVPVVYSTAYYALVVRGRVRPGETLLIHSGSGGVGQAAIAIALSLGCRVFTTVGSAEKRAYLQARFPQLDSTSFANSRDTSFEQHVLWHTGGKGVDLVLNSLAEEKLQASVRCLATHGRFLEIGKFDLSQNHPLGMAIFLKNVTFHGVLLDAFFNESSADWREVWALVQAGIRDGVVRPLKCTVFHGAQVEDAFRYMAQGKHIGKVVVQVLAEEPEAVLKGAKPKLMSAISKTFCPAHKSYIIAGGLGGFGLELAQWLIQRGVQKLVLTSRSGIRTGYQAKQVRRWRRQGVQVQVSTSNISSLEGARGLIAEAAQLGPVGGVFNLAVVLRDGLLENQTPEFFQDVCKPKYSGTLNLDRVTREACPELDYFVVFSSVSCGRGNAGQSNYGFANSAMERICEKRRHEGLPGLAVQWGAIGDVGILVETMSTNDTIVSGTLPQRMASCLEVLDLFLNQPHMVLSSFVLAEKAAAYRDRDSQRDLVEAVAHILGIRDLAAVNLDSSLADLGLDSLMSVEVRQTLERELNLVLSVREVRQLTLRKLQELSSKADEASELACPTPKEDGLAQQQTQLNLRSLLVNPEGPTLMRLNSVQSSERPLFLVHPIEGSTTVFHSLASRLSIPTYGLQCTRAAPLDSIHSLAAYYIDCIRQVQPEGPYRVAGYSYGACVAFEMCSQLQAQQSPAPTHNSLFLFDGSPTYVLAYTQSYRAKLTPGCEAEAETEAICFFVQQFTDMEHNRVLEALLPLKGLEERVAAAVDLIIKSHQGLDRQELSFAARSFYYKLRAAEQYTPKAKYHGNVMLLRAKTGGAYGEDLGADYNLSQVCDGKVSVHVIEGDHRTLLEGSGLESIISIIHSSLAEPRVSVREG

Fatty acid synthase [12] = biological target: T3, Fatty acid synthase; experiment: FAS thioesterase domain inhibitors, dose response, biochemical, kinetic fluorescence intensity (AID 624326); type: functional;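 further: rate of fluorescence rise from hydrolysis of a fluorogenic O-methyl fluorescein ester substrate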
[13] = inhibitors of HIV Env-driven cell fusion, dose response, cherry-pick (AID 652057); type: functional, cell-based
Streptococcus = experiment: Group A Streptococcus viability loss, dose response, counter-screen for streptokinase expression inhibitor project, luminescence, BacTiterGlo (AID 1915); type: functional, organism-based;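 further: potency for reduction of bacterial viability or growth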
[14] = biological target: T4, DNA repair protein RAD52 homolog (Homo sapiens, UniProt P43351); type: functional, biochemical
T4 sequence (P43351 whole entry): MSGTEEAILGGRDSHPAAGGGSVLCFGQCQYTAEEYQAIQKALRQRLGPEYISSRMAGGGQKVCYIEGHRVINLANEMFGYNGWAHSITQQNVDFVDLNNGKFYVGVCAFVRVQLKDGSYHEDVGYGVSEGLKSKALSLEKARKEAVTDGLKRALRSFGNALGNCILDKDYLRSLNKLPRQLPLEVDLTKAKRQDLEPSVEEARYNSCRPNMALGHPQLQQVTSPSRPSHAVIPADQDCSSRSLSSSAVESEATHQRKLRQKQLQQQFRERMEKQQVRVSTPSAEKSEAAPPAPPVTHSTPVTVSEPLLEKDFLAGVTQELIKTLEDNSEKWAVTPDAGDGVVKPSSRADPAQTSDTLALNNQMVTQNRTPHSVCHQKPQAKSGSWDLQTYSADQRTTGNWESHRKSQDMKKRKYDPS

Streptokinase A = biological target: T5, Streptokinase A (Streptococcus pyogenes serotype M1, UniProt P10520); experiment: S. pyogenes streptokinase expression inhibitors, potency, dose response, plasminogen activation absorbance, OD405 (AID 1914); type: functional, Streptococcus pyogenes M1 GAS;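 further: secreted streptokinase activity via plasminogen activation per viability signal from cell pellet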
T5 sequence (P10520 whole entry): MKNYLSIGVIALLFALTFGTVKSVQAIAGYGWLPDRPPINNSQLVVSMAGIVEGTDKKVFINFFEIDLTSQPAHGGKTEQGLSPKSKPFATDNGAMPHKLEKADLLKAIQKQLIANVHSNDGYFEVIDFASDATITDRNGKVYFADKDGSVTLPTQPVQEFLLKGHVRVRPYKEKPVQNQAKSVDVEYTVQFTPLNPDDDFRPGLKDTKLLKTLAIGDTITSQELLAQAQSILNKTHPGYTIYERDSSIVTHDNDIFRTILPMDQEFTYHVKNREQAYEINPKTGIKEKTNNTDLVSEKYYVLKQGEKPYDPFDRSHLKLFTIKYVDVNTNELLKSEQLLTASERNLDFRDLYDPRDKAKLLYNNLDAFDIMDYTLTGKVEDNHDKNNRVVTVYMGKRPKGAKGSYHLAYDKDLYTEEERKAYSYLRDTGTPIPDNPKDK

[15] = test system: Streptococcus sp. 'group A'; experiment: growth inhibition of control SK(-) GAS strain, dose response, counter-screen for streptokinase expression inhibitor project, luminescence, kanamycin, BacTiterGlo, confirmation (AID 1900); type: functional, organism-based
cells [16] = type: functional
[17] = NIH-3T3 fibroblast cytotoxicity, dose response, cytotoxicity control, cell-based, fluorescence, Alamar Blue, secondary assay (AID 2327); type: functional;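 further: NIH-3T3 mouse fibroblasts cultured with fluconazole at 8 µg/mL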

Structure (SMILES): CCNC(=O)C[C@@H]1CC[C@@H]2[C@@H](COc3ccc(NC(=O)Cc4cccs4)cc3C(=O)N2C)O1
- AC50 [1]: 41.5 µM (active)

Structure (SMILES): CCOc1ccccc1C1C2=C(O)OCC2=Nc2cc3c(cc21)OCO3 (centres undefined)
- EC50 [2]: 0.468 µM (active)
- AC50 (Paired box protein Pax-8): 2.15 µM (active)
- EC50 (BJ [3]): 0.442 µM (active)
- EC50 (BJ [4]): 1.11 µM (inconclusive)
- EC50 [5]: > 38 µM (not active)

Structure (SMILES): C[C@H]1CN([C@@H](C)CO)S(=O)(=O)c2ccc(C#Cc3ccc(F)cc3)cc2O[C@H]1CN(C)C(=O)NC1CCCCC1
- AC50 (Paired box protein Pax-8): 8.09 µM (active)
- AC50 [6]: 44.5 µM (active)

Structure (SMILES): Cc1ccc(/C=N/NC(=S)Nc2cccc(S(=O)(=O)N(C)C)c2)o1
- CC50 (Vero): > 25 µM (active)
- EC50 [7]: > 53 µM (inactive)
- IC50 [8]: > 47.1 µM (inactive)

Structure (SMILES): COc1ccc(CCNC(=O)CC(NC(=O)c2ccccc2Cl)c2ccccc2)cc1 (centres undefined)
- EC50 (cells [9]): > 350 µM (not active)
- EC50 (cells [10]): > 350 µM (not active)

Structure (SMILES): O=C(c1cccnc1)c1cc2ccccc2[nH]1
- EC50 (cells [9]): > 350 µM (not active)
- EC50 (cells [10]): 31.3 µM (active)

Structure (SMILES): Cc1cc(O)nc(SCC(=O)Nc2nonc2C)n1
- EC50 (cells [9]): > 350 µM (not active)
- EC50 (cells [10]): > 350 µM (not active)

Structure (SMILES): COC(=O)CN1C(=S)N(c2ccc(OC)cc2)C(=O)/C1=C/c1ccc(N2CCOCC2)cc1
- IC50 (Protein skinhead-1): > 100 µM (inactive)

Structure (SMILES): Cc1ccc(S(=O)(=O)Nc2cccc(-c3ccc(N4CCCCCC4)nn3)c2)cc1
- IC50 (Fatty acid synthase [11]): 6.68 µM (active)
- IC50 (Fatty acid synthase [12]): 3.42 µM (active)

Structure (SMILES): O=C(C[C@H]1CC[C@@H](NC(=O)c2cccc(F)c2)[C@H](CO)O1)NCc1ccc(Oc2ccccc2)cc1
- AC50 [1]: 1.17 µM (active)
- AC50 [13]: 1.2 µM (active)

Structure (SMILES): CN1CCN(C2Cc3ccc(Cl)cc3Sc3ccc(F)cc32)CC1 (centres undefined)
- EC50 (Streptococcus): 11.9 µM (active)
- AC50 [14]: 14.1 µM (active)
- EC50 (Streptokinase A): > 150 µM (not active)
- EC50 [15]: 4.95 µM (active)

Structure (SMILES): O=C(Nc1nnc(-c2ccc(Br)cc2)o1)c1ccco1
- EC50 (Streptococcus): 13.7 µM (active)
- IC50 (cells [16]): 3.95 µM (active)
- EC50 (Streptokinase A): > 150 µM (not active)
- EC50 [15]: 3.78 µM (active)

Structure (SMILES): CN/C(=C\[N+](=O)[O-])NCCSCc1ccc(CN(C)C)o1 [RANITIDINE HYDROCHLORIDE]
- AC50 [14]: 11.8 µM (active)

Structure (SMILES): CCOC(=O)/C(=N\Nc1cccc(C(F)(F)F)c1)N1CCOCC1
- EC50 [17]: > 160 µM (inconclusive)
- EC50 (cells [9]): > 350 µM (not active)
- EC50 (cells [10]): 320 µM (active)
- EC50 [5]: > 38 µM (not active)

Structure (SMILES): CN(CC1CCCO1)S(=O)(=O)c1ccc(C(=O)Nc2nccs2)cc1 (centres undefined)
- EC50 (cells [9]): > 350 µM (not active)
- EC50 (cells [10]): > 350 µM (not active)

Structure (SMILES): Cc1ccsc1C(=O)OCC(=O)Nc1nnc(-c2ccccc2)o1
- EC50 [17]: > 160 µM (inactive)
- IC50 (cells [16]): 15.1 µM (active)
- EC50 [5]: 3.98 µM (active)

Structure (SMILES): COc1ccc(N/C=C\C(=O)c2ccc3c(c2)OCO3)cc1
- EC50 (cells [9]): > 350 µM (not active)
- EC50 (cells [10]): 4.39 µM (active)

Structure (SMILES): O=C(OCC(=O)N1CCN(c2ccccc2)CC1)c1ccc(Cl)cc1[N+](=O)[O-]
- IC50 (cells [16]): > 50 µM (active)

Structure (SMILES): Cc1cc(N2CCN(C)CC2)nc2ccc(NC(=S)N3CCCCC3)cc12
- AC50 [14]: 10.9 µM (active)

Structure (SMILES): NC(=NOC(=O)CC1CCCCC1)c1cccc([N+](=O)[O-])c1
- IC50 (Fatty acid synthase [11]): 7.05 µM (active)
- IC50 (Fatty acid synthase [12]): 8.29 µM (active)

Structure (SMILES): O=C(C[C@@H]1C[C@H]2c3cc(NC(=O)Nc4ccc(C(F)(F)F)cc4)ccc3O[C@H]2[C@H](CO)O1)NCc1ccc(Cl)cc1
- AC50 (Paired box protein Pax-8): 17.5 µM (active)
- AC50 [6]: 68.2 µM (active)

Structure (SMILES): Fc1cc(Cl)cc2ccc(-c3ccccc3)nc12
- IC50 (Protein skinhead-1): 45.2 µM (active)

Structure (SMILES): CC1CCCC(C)N1C(=O)COC(=O)c1cc([N+](=O)[O-])ccc1N1CCOCC1 (centres undefined)
- IC50 (Fatty acid synthase [11]): 7.31 µM (active)
- IC50 (Fatty acid synthase [12]): 9.93 µM (active)

Structure (SMILES): O=C(NCC1CCCO1)c1cc(-c2ccc(F)cc2)no1 (centres undefined)
- EC50 (cells [9]): 143 µM (active)
- EC50 (cells [10]): > 350 µM (not active)

Structure (SMILES): Cn1ccs/c1=N\C(=O)c1ccc(OC(F)(F)F)cc1
- IC50 (Protein skinhead-1): 29.8 µM (active)

Structure (SMILES): Fc1ccc(-c2cnc(-c3cccs3)o2)cc1
- IC50 (Protein skinhead-1): 24 µM (active)

Structure (SMILES): C[C@H](CO)N1C[C@H](C)[C@H](CN(C)S(=O)(=O)c2cccs2)Oc2ccc(NC(=O)NC3CCCCC3)cc2CC1=O
- AC50 [1]: 3.49 µM (active)
- AC50 [13]: 1.19 µM (active)

Structure (SMILES): COc1ccc(/C=C(\NC(=O)c2ccc([N+](=O)[O-])cc2)C(=O)NCCCn2ccnc2)cc1
- IC50 (Fatty acid synthase [11]): 2.35 µM (active)
- IC50 (Fatty acid synthase [12]): 3.01 µM (active)
